Experiments:
[1] = biological target: Serotonin (5-HT) receptor; assay: Compound was evaluated for binding affinity towards 5-hydroxytryptamine receptor in isolated rat fundus preparation measured as pA2
[2] = species: Rattus norvegicus; assay: Effective dose was determined for the behavioral (interoceptive cues) activity of rats; format: functional

## COc1cc(OC)c2[nH]cc(CCN(C)C)c2c1
[1]
  pA2: 5.5
[2]
  ED50: 3.38 mg/kg

## COc1ccc(OC)c(CC(C)N)c1 (stereo not given)
[2]
  ED50: 0.59 mg/kg

## COc1ccc2c(CCN(C)C)c[nH]c2c1
[2]
  ED50: 0.4 mg/kg

## CCc1cccc2c(CCN(C)C)c[nH]c12
[1]
  pA2: 6.31

## COc1cc2c(CCN(C)C)c[nH]c2c(OC)c1OC
[1]
  pA2: 5.98

## CN(C)CCc1c[nH]c2c(Br)cccc12
[1]
  pA2: 6.51

## COc1cc(C)c2[nH]cc(CCN(C)C)c2c1
[1]
  pA2: 6.61
[2]
  ED50: 1.54 mg/kg

## Cc1cccc2c(CCN(C)C)c[nH]c12
[1]
  pA2: 6.29
